Experimental findings from ChEMBL document CHEMBL1131240, “Novel benzothiazolin-2-one and benzoxazin-3-one arylpiperazine derivatives with mixed 5HT1A/D2 affinity as potential atypical antipsychotics” (J Med Chem, 1998) are described below.

One may read the IC50 as the concentration that inhibits the measured activity by half. High values mean lower potency, low ones higher potency.

The target of experiment [1] is 5-hydroxytryptamine receptor 2A (Bos taurus, UniProt Q75Z89). Briefly: Affinity towards 5-hydroxytryptamine 2A receptor in membranes from bovine frontal cortex using [3H]ketanserin. Format: tissue-based.
Sequence of 5-hydroxytryptamine receptor 2A (Q75Z89 whole entry): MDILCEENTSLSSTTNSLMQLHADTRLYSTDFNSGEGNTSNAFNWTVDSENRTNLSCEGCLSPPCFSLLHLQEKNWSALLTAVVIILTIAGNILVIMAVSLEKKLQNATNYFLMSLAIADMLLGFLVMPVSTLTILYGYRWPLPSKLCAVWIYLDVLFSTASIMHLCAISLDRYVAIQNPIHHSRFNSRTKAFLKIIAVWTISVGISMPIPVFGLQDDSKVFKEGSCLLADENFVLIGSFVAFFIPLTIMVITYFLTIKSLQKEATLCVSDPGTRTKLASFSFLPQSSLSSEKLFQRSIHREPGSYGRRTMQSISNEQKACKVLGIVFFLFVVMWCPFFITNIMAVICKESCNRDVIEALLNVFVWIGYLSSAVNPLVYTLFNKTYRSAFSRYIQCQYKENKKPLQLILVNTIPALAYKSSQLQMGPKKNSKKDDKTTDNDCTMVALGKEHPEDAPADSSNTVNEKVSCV
Experiment [2] relates to Mus musculus. Briefly: Compound was evaluated in vivo antagonism of mescaline-induced scratching(% vs controls), dose(mg/Kg ip)=4. The format is functional.
Experiment [3] addresses T1, Alpha-1A adrenergic receptor (Bos taurus, UniProt P18130).
T1 sequence (P18130 whole entry): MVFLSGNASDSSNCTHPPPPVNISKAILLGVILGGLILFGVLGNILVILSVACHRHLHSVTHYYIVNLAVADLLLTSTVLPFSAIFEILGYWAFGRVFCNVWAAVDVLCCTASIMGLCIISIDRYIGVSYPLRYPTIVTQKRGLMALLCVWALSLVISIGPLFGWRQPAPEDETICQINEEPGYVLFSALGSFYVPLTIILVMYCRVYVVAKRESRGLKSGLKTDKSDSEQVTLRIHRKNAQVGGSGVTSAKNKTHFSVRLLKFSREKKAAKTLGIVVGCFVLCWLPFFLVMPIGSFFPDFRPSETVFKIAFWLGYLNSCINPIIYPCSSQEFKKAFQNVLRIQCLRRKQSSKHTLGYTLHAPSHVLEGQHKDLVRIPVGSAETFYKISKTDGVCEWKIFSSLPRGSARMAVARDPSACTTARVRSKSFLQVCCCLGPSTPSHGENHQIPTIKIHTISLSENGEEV
Briefly: Affinity towards Alpha-1A adrenergic receptor in membranes from bovine frontal cortex using [3H]prazosin. Format: tissue-based.

The target in experiment [4] is 5-hydroxytryptamine receptor 1B (Rattus norvegicus, UniProt P28564). Put plainly: Affinity towards 5-hydroxytryptamine 1B receptor in membranes from rat frontal cortex using [3H]5-HT. The format is tissue-based.
Sequence of 5-hydroxytryptamine receptor 1B (P28564 whole entry): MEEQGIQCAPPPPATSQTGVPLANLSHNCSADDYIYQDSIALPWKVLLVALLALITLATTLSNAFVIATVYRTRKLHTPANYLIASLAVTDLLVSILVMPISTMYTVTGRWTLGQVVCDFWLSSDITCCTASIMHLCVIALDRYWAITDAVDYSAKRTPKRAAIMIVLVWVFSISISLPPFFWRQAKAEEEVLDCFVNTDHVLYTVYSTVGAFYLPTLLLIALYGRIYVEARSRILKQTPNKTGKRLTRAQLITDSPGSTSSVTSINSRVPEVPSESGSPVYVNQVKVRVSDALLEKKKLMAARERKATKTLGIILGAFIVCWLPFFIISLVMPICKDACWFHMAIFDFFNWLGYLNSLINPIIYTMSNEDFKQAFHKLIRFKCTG
For experiment [5], the system named is Mus musculus. Put plainly: Tail suspension test in mice, dose(mg/Kg ip) = 4;duration of immobility(% vs controls). The format is functional.
In experiment [6] the test system is Mus musculus. Put plainly: Compound was evaluated in vivo antagonism of mescaline-induced scratching(% vs controls), dose(mg/Kg ip)=1. The format is functional.
In experiment [7] the test system is Rattus norvegicus. Briefly: Effects on Sidman Avoidance performance in rats, number of Avoidance performance (% change from control), dose (mg/Kg po) = 8. Format: functional.
Experiment [8] relates to Rattus norvegicus. Put plainly: effects on Sidman Avoidance performance in rats, number of escape failure (absolute change from control), p<0.01, dose(mg/Kg po) =32. The format is functional.
Experiment [9] relates to Mus musculus. Put plainly: Compound was evaluated in vivo antagonism of mescaline-induced scratching(% vs controls), dose(mg/Kg ip)=0.25. The format is functional.
Experiment [10] relates to Rattus norvegicus. Briefly: Antagonism of PCP-induced stereotypies (%vs controls), dose(mg/Kg po) = 8. Format: functional.
For experiment [11], the system named is Rattus norvegicus. Briefly: Antagonism of SKF 10047 -induced hypermotility (% vs controls) dose(mg/Kg po) = 0.5. Format: functional.
Experiment [12] relates to Rattus norvegicus. Put plainly: effects on Sidman Avoidance performance in rats, number of Avoidance performance(% change from control) p<0.001 dose(mg/Kg po) =32. The format is functional.
The test system of experiment [13] is Rattus norvegicus. Briefly: Antagonism of SKF 10047 -induced hypermotility (% vs controls) dose(mg/Kg po) = 8. The format is functional.
Experiment [14] has as its system Rattus norvegicus. Briefly: Antagonism of PCP-induced stereotypies (%vs controls), dose(mg/Kg po) = 2. The format is functional.
The subject of experiment [15] is Rattus norvegicus. Put plainly: Antagonism of PCP-induced stereotypies (%vs controls), dose(mg/Kg po) = 0.5. The format is functional.
In experiment [16] the test system is Rattus norvegicus. Briefly: effects on Sidman Avoidance performance in rats, number of shocks (absolute change from control),n=10 animals per group, dose(mg/Kg po) =16. The format is functional.
Experiment [17] concerns Rattus norvegicus. Put plainly: effects on Sidman Avoidance performance in rats, number of Avoidance performance(% change from control), p<0.01,dose(mg/Kg po) =16. The format is functional.
Experiment [18] has as its system Rattus norvegicus. Briefly: effects on Sidman Avoidance performance in rats, number of escape failure (absolute change from control), dose(mg/Kg po) =8. Format: functional.
Experiment [19] has as its system Rattus norvegicus. Put plainly: effects on Sidman Avoidance performance in rats, number of shocks (absolute change from control), p<0.001, dose(mg/Kg po) =32. Format: functional.
Experiment [20] has as its system Rattus norvegicus. Put plainly: effects on Sidman Avoidance performance in rats, number of escape failure (absolute change from control),n=10 animals per group, dose(mg/Kg po) =16. The format is functional.
Experiment [21] relates to Rattus norvegicus. Briefly: Effects on Sidman Avoidance performance in rats, number of shocks (absolute change from control), dose (mg/Kg po) =8. The format is functional.
Experiment [22] has as its system Mus musculus. Put plainly: Compound was evaluated in vivo antagonism of mescaline-induced scratching(% vs controls), dose(mg/Kg ip)=2. Format: functional.
Experiment [23] has as its system Mus musculus. Put plainly: Compound was evaluated in vivo antagonism of mescaline-induced scratching(% vs controls), dose(mg/Kg ip)=1, p<0.05.
In experiment [24] the test system is Mus musculus. Put plainly: Compound was evaluated in vivo antagonism of mescaline-induced scratching(% vs controls), dose(mg/Kg ip)=2, ns.
The test system of experiment [25] is Mus musculus. Put plainly: Compound was evaluated in vivo antagonism of mescaline-induced scratching(% vs controls), dose(mg/Kg ip)=4, p<0.001. The format is functional.
Experiment [26] has as its system Mus musculus. Put plainly: Compound was evaluated in vivo antagonism of mescaline-induced scratching(% vs controls), dose(mg/Kg ip)=8, p<0.001. The format is functional.
Experiment [27] has as its system Rattus norvegicus. Put plainly: effects on Sidman Avoidance performance in rats, number of escape failure (absolute change from control), p<0.01, dose(mg/Kg po) =1. Format: functional.
Experiment [28] relates to Rattus norvegicus. Put plainly: effects on Sidman Avoidance performance in rats, number of shocks (absolute change from control), p<0.001, dose(mg/Kg po) =1. Format: functional.
The test system of experiment [29] is Rattus norvegicus. Put plainly: Antagonism of SKF 10047 -induced hypermotility (% vs controls) dose(mg/Kg po) = 1.

Turning to `COc1ccccc1N1CCN(CCCc2ccc3nc(O)sc3c2)CC1`, the values for the IC50 in [1], in [3] and in [4] were 290 nM, 1 nM and 61 nM, respectively. Further, in the experiment with Mus musculus [2], the Activity stood at 96. In the experiment with Mus musculus [5], this compound gave a Duration of immobility of 99.

Consider `COc1ccccc1N1CCN(CCc2ccc3c(c2)sc(=O)n3C)CC1`, for which the Activity is 100 with Mus musculus [6] and 92 with Mus musculus [9]. In addition, the concentration for half-maximal inhibition (IC50) in experiment [1] came to 500 nM; in experiment [3] it was 10 nM; in experiment [4] it was 300 nM. The No. of avoidance was determined as 12 with Rattus norvegicus [7], 78 in the experiment with Rattus norvegicus [12] and 38 with Rattus norvegicus [17]. For the same compound, the “No. of escape failure” value in the experiment with Rattus norvegicus [8] came to 63.6; in the experiment with Rattus norvegicus [18], 5.8; in the experiment on Rattus norvegicus [20] it was 18.5. Further, the Hypermotility came to 21 with Rattus norvegicus [10]; 39 with Rattus norvegicus [11]; 71 in the experiment with Rattus norvegicus [13]; 2 in the experiment with Rattus norvegicus [14]; 12 in the experiment with Rattus norvegicus [15]. Besides, the No. of shocks in the experiment with Rattus norvegicus [16] stood at 23.8; in the experiment with Rattus norvegicus [19], 87.8; with Rattus norvegicus [21] it was 7.3. For the same compound, in the experiment on Mus musculus [5], the Duration of immobility is given as 89.

As to `COc1ccccc1N1CCN(CCCc2ccc3c(c2)sc(=O)n3C)CC1`, the IC50 was 910 nM in [1], 6 nM in [3] and 360 nM in experiment [4]. The Activity in the experiment on Mus musculus [22] came to 73.

Take `COc1ccccc1N1CCN(CCc2ccc3c(c2)OCC(=O)N3C)CC1`: the IC50 is 600 nM in experiment [1], 0.5 nM in experiment [3] and 180 nM in experiment [4].

Turning to `Cn1c(=O)sc2cc(CCN3CCN(c4cccc(C(F)(F)F)c4)CC3)ccc21`, the figures for the IC50 in experiment [1], in experiment [3] and in experiment [4] were 600 nM, 400 nM and 70 nM, respectively.

For `Oc1nc2ccc(CCN3CCN(c4ccccc4)CC3)cc2s1`, the results for the IC50 in experiment [1] and in experiment [4] were 40 nM and 300 nM, respectively.

As to `O=c1[nH]c2ccc(CCN3CCN(c4cccc(C(F)(F)F)c4)CC3)cc2s1`, the results for the IC50 in experiment [1], in experiment [3] and in experiment [4] were 200 nM, 90 nM and 600 nM, respectively.

Turning to `COc1ccccc1N1CCN(CCCCc2ccc3c(c2)OCC(=O)N3C)CC1`, the values for the IC50 in experiment [1] and in experiment [3] were 840 nM and 20 nM, respectively. Besides, the Duration of immobility in the experiment on Mus musculus [5] is 124. The Activity in the experiment on Mus musculus [23] was determined as 81.

Turning to `CN1C(=O)COc2cc(CCN3CCN(c4cccc(C(F)(F)F)c4)CC3)ccc21`, the IC50 amounted to 620 nM in experiment [1], 85 nM in experiment [3] and 460 nM in experiment [4].

Take `Cn1c(=O)sc2cc(CCN3CCN(c4ccc(F)cc4)CC3)ccc21`: the IC50 in [1] worked out at 200 nM; in [3], 30 nM; in experiment [4], 3000 nM.

Consider `Cn1c(=O)sc2cc(CCN3CCN(c4ccccc4O)CC3)ccc21`, for which the IC50 in [1] is 1100 nM; in [4], 31 nM.

As to `COc1ccccc1N1CCN(CCc2ccc3nc(O)sc3c2)CC1`, the results for the IC50 in experiment [1], in experiment [3] and in experiment [4] were 300 nM, 0.6 nM and 20 nM, respectively.

`Cn1c(=O)sc2cc(CCCCN3CCN(c4cccc(C(F)(F)F)c4)CC3)ccc21`: the IC50 in [1] is 400 nM; in [3] it was 200 nM; in experiment [4] it was 1000 nM.

`COc1ccccc1N1CCN(CCCCc2ccc3c(c2)sc(=O)n3C)CC1`: the IC50 in experiment [1] came to 1000 nM; in experiment [3] it was 30 nM; in [4], 300 nM. This compound also yielded a Duration of immobility with Mus musculus [5] of 36.

Regarding `Oc1nc2ccc(CCN3CCN(c4ccccc4O)CC3)cc2s1`, the IC50 amounted to 530 nM in [1] and 260 nM in [4]. Besides, the values for the Activity with Mus musculus [24] and with Mus musculus [25] were 71 and 97, respectively. The compound also came in with a Duration of immobility in the experiment on Mus musculus [5] of 92.

`Cn1c(=O)sc2cc(CCN3CCN(c4ccccc4)CC3)ccc21`: the IC50 in experiment [1] is 70 nM; in [3] it was more than 100 nM; in experiment [4], 200 nM.

Regarding `CN1C(=O)COc2cc(CCCCN3CCN(c4cccc(C(F)(F)F)c4)CC3)ccc21`, the IC50 in [1] turned out to be 620 nM; in experiment [3], 30 nM; in [4], 280 nM. Moreover, the figures for the Activity with Mus musculus [24] and in the experiment with Mus musculus [26] were 60 and 87, respectively.

`O=c1[nH]c2ccc(CCCCN3CCN(c4cccc(C(F)(F)F)c4)CC3)cc2s1`: the IC50 in experiment [1] turned out to be 570 nM; in experiment [3], 45 nM; in [4], 400 nM.

On to `COc1ccccc1N1CCN(CCCCc2ccc3[nH]c(=O)sc3c2)CC1`, for which the IC50 in experiment [1] came out at 150 nM; in experiment [3], 0.82 nM; in experiment [4], 200 nM.

Take `CN1CCN(C2=Nc3cc(Cl)ccc3Nc3ccccc32)CC1` [CLOZAPINE]: in the experiment on Rattus norvegicus [8], the “No. of escape failure” value amounted to 53.8. In the experiment on Mus musculus [25], this compound gave an Activity of 99. The No. of shocks with Rattus norvegicus [19] was determined as 71.1. The compound further had a Duration of immobility in the experiment with Mus musculus [5] of 90.

Take `O=C(CCCN1CCC(O)(c2ccc(Cl)cc2)CC1)c1ccc(F)cc1` [HALOPERIDOL]: in the experiment with Rattus norvegicus [27], the “No. of escape failure” value was determined as 84.6. The compound also came in with a No. of shocks with Rattus norvegicus [28] of 99.7. Further, the Hypermotility with Rattus norvegicus [29] stood at 94. In the experiment on Mus musculus [5], the Duration of immobility amounted to 65.
